From patent US20170296490A1, “USE OF LIGNIN-DERIVED ALDEHYDES AS ANTIFUNGAL AGENTS” (Wisconsin Alumni Research Foundation, priority 2016, published 2017)

How the values were obtained:
S. sclerotiorum = test: Colony growth inhibition of S. sclerotiorum (FIG. 4); format: cell-based, Sclerotinia sclerotiorum; details: for growth of the colony: S. sclerotiorum, 250, 500 and 1,000 μg/mL vs untreated control (DMSO), dose-dependent; for inhibition of Sclerotinia sclerotiorium (summary statement): no concentration stated
Protocol: FIG. 4 is a series of photographs illustrating dose-dependent inhibition of Scelerotinia sclerotiorium by sinapyl aldehyde (top row) and coniferyl aldehyde (bottom row) at concentrations of 250 μg/mL, 500 μg/mL, and 1,000 μg/mL.
FIG. 4 is a series of photographs analogous to FIG. 1, but showing the ability of sinapldehyde and coniferyl aldehyde to attenuate the grown of S. sclerotiorum. […] White mold is particularly significant economically because it affects a wide range of hosts. It is also capable of infecting plants at any stage of growth makes. S. sclerotiorum, can survive on infected tissues, in the soil, and on living plants. It affects young seedlings, mature plants, and fruit in the field or in storage. […] It can also propagate throughout a harvested crop if conditions are not monitored carefully. It infects many extensively planted crops, including soybeans, green beans, sunflowers, canola, and peanuts.

Alternaria alternata = test: Colony growth inhibition of Alternaria alternata (FIGS. 2, 3); format: cell-based; details: for inhibition of Alternaria alternata (summary statement): no concentration stated; for colony size: end of six days
Protocol: FIG. 2 is a graph depicting dose-dependent inhibition of Alternaria alternata by sinapyl aldehyde. Control=[…]. 250 μg/mL=∘. 500 μg/mL=▾. 1,000 μg/mL=Δ.
FIG. 3 is a graph depicting dose-dependent inhibition of Alternaria alternata by coniferyl aldehyde. Control=[…]. 250 μg/mL=∘. 500 μg/mL=▾. 1,000 μg/mL=Δ.
Similar to FIG. 1, FIG. 2 is a graph depicting dose-dependent inhibition of Alternaria alternata by sinapyl aldehyde. Time in days is on the X-axis; colony size in cm is on the Y-axis. […] A. alternata has also been implicated as a causative agent of asthma in humans. Salo et al. (October 2006) “Exposure to Alternaria alternata in US homes is associated with asthma symptoms” J Allergy Clin Immunol.; 118(4): 892-898.
(Control=[…]. 250 μg/mL=∘. 500 μg/mL=▾. 1,000 μg/mL=Δ.)

Saccharomyces cerevisiae = test: Growth inhibition of the yeast S. cerevisiae (FIG. 5); format: cell-based; details: for inhibition of S. cerevisiae: at 500 μg/mL; for inhibition of Saccharomyces cerevisiae (summary statement): no concentration stated
Excerpt: FIG. 5 is a graph depicting dose-dependent inhibition of the yeast S. cerevisiae by sinapyl aldehyde ([…]), coniferyl aldehyde (∘), and p-hydroxycoumaryl aldehyde (▾).
FIG. 5 depicts dose-dependent inhibition of S. cerevisiae by sinapyl aldehyde ([…]), coniferyl aldehyde (∘), and p-hydroxycoumaryl aldehyde (▾).

Candida albicans = test: Growth inhibition of C. albicans (FIG. 6); format: cell-based; details: for inhibitory activity against C. albicans: at a concentration of 1000 μg/mL; for inhibition of Candida albicans (summary statement): no concentration stated
Excerpt: FIG. 6 is a graph depicting dose-dependent inhibition of the yeast C. albicans by sinapyl aldehyde ([…]), coniferyl aldehyde (∘), and p-hydroxycoumaryl aldehyde (▾).
FIG. 6 depicts dose-dependent inhibition of C. albicans by sinapyl aldehyde ([…]), coniferyl aldehyde (∘), and p-hydroxycoumaryl aldehyde (▾). Here, the inhibition was not as pronounced as against S. cerevisiae.

Alternaria solani = test: Colony growth inhibition of Alternaria solani (FIG. 1); format: cell-based; details: for growth of the colony: A. solani, 250, 500 and 1,000 μg/mL vs untreated control (DMSO), dose-dependent; for inhibition of Alternaria solani (summary statement): no concentration stated
Protocol: FIG. 1 is a series of photographs illustrating dose-dependent inhibition of Alternaria solani by sinapaldehyde (top row) and coniferyl aldehyde (bottom row) at concentrations of 250 μg/mL, 500 μg/mL, and 1,000 μg/mL.
Without aggressive early control of the pathogen, early blight causes significant yield reductions.

| Compound | growth of the colony (S. sclerotiorum) | inhibition of Sclerotinia sclerotiorium (summary statement) (S. sclerotiorum) | growth rates and colony size (Alternaria alternata; A. alternata, 250, 500 and 1,000 μg/mL treatment groups, six days) | inhibition of Alternaria alternata (summary statement) (Alternaria alternata) | inhibition of S. cerevisiae (Saccharomyces cerevisiae) | inhibition of Saccharomyces cerevisiae (summary statement) (Saccharomyces cerevisiae) | inhibitory activity against C. albicans (Candida albicans) | inhibition of Candida albicans (summary statement) (Candida albicans) | growth of the colony (Alternaria solani) | inhibition of Alternaria solani (summary statement) (Alternaria solani) | colony size (Alternaria alternata; A. alternata, 250 μg/mL) | colony size (Alternaria alternata; A. alternata, 500 μg/mL) | colony size (Alternaria alternata; A. alternata, 1,000 μg/mL) |
| --- | --- | --- | --- | --- | --- | --- | --- | --- | --- | --- | --- | --- | --- |
| COc1cc(/C=C/C=O)ccc1O [coniferyl aldehyde] | very significantly inhibited | show inhibition | progressively attenuated growth rates and smaller colony size | show inhibition | very significant inhibition | show inhibition | very signification inhibitory activity | show inhibition | very significantly inhibited | show inhibition | – | – | – |
| O=C/C=C/c1ccc(O)cc1 [p-hydroxycoumaryl aldehyde] | – | show inhibition | – | show inhibition | very significant inhibition | show inhibition | very signification inhibitory activity | show inhibition | – | show inhibition | – | – | – |
| COc1cc(/C=C/C=O)cc(OC)c1O [sinapyl aldehyde] | very significantly inhibited | show inhibition | – | show inhibition | very significant inhibition | show inhibition | – | show inhibition | very significantly inhibited | show inhibition | smaller than the untreated colony | smaller still | the smallest of those tested |
